These results are taken from patent US11261152B2, “Inhibitors of the N-terminal domain of the androgen receptor” (The Regents of the University of California, priority 2017, dated 2022).

“Also recorded” adds a separate entry of the source. Counter-ions that a name gives are not always drawn.

The test system of test [1] is androgen response element (ARE). Put plainly: ARE reporter assay (tandem copies of the androgen response element). It counts as cell-based. As to the method:
FIG. 11A. Effects of JN series compounds in reporter assays for androgen response element. Experiments were performed in triplicate and results are means+/−s.d.

Test [2] relates to glucocorticoid response element (GRE) / glucocorticoid receptor. Put plainly: GRE reporter assay. It counts as cell-based. Here is the method:
FIG. 11B. Effects of JN series compounds in reporter assays for glucocorticoid response element. Experiments were performed in triplicate and results are means+/−s.d.

The target of test [3] is T1, AR transactivation domain (TAD) (Homo sapiens, UniProt P10275).
T1 construct: expressed in transfected cells
T1 sequence (P10275 1-559 limits assumed): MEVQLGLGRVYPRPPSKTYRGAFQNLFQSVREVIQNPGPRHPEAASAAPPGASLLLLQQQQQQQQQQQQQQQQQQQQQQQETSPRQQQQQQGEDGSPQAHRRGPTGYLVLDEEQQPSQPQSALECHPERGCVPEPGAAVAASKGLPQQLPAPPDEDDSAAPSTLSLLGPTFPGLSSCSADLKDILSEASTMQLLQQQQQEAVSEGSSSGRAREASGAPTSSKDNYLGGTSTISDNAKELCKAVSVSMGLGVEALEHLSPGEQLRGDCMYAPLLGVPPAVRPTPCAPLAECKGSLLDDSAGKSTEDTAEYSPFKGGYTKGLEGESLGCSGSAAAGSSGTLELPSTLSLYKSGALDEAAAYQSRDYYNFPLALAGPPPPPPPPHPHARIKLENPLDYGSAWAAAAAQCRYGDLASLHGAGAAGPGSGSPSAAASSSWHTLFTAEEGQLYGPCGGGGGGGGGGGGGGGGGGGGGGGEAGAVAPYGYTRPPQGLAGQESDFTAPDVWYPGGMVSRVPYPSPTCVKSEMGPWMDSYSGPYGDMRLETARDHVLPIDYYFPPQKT
Put plainly: AR-TAD fused to GAL4 DNA-binding domain reporter assay. It counts as cell-based. The source says: (§1) The inhibitory activity of JN018 was further evaluated in experiments in which the AR transactivation domain (TAD) or the c-Jun or CREB TAD was fused to the heterologous GAL4 DNA-binding domain and thereby drive reporter gene expression governed by the GAL4 response element (FIG. 1).

The subject of test [4] is c-Jun TAD. The experiment in a line: JUN-TAD fused to GAL4 DNA-binding domain reporter assay. It counts as cell-based. As to conditions: Table 3 grade HIGH/MED/LOW, grades not defined.
Text: as §1

For test [5], the system named is CREB TAD. Put plainly: CREB-TAD fused to GAL4 DNA-binding domain reporter assay. It counts as cell-based. Particulars: Table 3 grade HIGH/MED/LOW, grades not defined.
Text: as §1

Test [6] has as its system CREB mediated reporter activity. The experiment in a line: CRE / CREB mediated reporter assay. It counts as cell-based.
Test [7] addresses T2, AR (Homo sapiens, UniProt P10275).
T2 sequence (P10275 1-920): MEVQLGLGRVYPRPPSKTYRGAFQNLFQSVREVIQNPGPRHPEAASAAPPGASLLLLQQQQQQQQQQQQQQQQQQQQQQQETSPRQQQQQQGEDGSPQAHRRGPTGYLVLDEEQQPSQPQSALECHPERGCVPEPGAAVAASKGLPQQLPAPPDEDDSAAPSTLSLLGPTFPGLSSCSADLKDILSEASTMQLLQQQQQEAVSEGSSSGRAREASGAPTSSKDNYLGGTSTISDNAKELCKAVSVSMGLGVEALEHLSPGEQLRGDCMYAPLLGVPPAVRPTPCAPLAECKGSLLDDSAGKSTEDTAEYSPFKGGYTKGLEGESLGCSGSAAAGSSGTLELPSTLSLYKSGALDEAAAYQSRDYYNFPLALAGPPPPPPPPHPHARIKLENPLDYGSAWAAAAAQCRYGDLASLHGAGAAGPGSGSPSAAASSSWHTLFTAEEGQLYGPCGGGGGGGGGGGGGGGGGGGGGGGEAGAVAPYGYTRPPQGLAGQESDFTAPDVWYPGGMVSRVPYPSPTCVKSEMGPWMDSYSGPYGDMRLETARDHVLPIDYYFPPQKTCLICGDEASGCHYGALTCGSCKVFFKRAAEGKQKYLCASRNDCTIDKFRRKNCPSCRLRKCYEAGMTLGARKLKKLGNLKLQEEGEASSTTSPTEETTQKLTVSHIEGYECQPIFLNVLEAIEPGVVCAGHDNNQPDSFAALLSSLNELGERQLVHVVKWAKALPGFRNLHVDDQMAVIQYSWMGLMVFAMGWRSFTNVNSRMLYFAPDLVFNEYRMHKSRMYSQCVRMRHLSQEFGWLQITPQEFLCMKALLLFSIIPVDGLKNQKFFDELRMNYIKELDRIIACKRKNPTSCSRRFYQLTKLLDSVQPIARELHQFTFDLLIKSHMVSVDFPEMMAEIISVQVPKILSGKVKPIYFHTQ
Put plainly: AR binding. From the text:
In particular, JN018 has the following properties: (1) AR TAD is its molecular target. […] (3) JN018 induces rapid degradation of the full-length AR (ARFL) and constitutively active AR splice variants (ARSV) that lack a functional LBD. […] (5) JN018 causes growth inhibition of castration resistant prostate cancer xenografts. (6) JN018 inhibits AR-driven gene expression.

For test [8], the system named is AR regulated genes (TMPRSS, NDRG), AR^FL, AR-V7. Put plainly: Expression of AR-regulated genes (Western blot). It counts as cell-based. As to the method: 22Rv1 and CWR22 cells were exposed to JN018 at the indicated concentrations (in μM) for 24 hours before protein extraction for Western blotting.
JN018 was further evaluated to identify a mechanism for its activity in prostate cancer cell lines. It was discovered that JN018 inhibits the expression of AR regulated genes. […] In principle, decreased AR expression can be attributed to several different effects, such as gene transcription, mRNA stability, translation, or protein stability.

Test [9] deals with AR (Homo sapiens, UniProt P10275). The experiment in a line: AR inhibition (reporter activity of full-length AR and AR splice variants).
Setting [10] is: Table 3 grade HIGH/MED/LOW, grades not defined.

As to `C=C(CN(C)Cc1ccccc1)C(=O)/C(=C/c1ccc(Cl)cc1)c1ccccc1` [JN018, (E)-4-((Benzyl(methyl)amino)methyl)-1-(4-chlorophenyl)-2-phenylpenta-1,4-dien-3-one hydrochloride], the ARE result in test [1] (setting [10]) was “HIGH”. For the same molecule, the “reporter activity driven by the ARE” value in test [1] (result in words) is “inhibits reporter activity”. Also, the GRE entry in [2] (setting [10]) is given as “LOW”. The “GR / GRE mediated reporter (transcriptional) activity” value in test [2] (result in words, hydrochloride) is on record as “does not inhibit; also recorded: does not affect”. Further, in test [3] (setting [10]), the AR-TAD entry is reported as “HIGH”. The “inhibition of the AR-GAL4-DBD fusion protein” value in test [3] (result in words, versus c-Jun or CREB TAD fusions) is recorded as “selectively inhibits”. Further, in test [4], the JUN-TAD entry is “LOW”. Moreover, the CREB-TAD entry in [5] is “LOW”. In test [6] (setting [10]), the CRE entry is “LOW”. In addition, the “CREB mediated reporter activity” value in test [6] (result in words) is reported as “does not affect”. Moreover, the “binding to the AR” value in test [7] (result in words) is reported as “direct, selective, high affinity covalent binding”. In test [7] (unit inferred), this molecule yielded a Kd of 0.0073 µM. The “full length AR and AR-V7 expression” value in test [8] is “reduces both full length AR and AR-V7 expression”. For the same molecule, the “expression of TMPRSS and NDRG” value in [8] (22Rv1 and CWR22 cells, 24 hours) is “reduces expression of TMPRSS and NDRG in a dose-dependent fashion”. In addition, the “reporter activity of endogenously and ectopically expressed full-length AR and AR-V7” value in test [9] (LNCaP, LNCaP-AR, 22Rv1, PC3 transfected with ARΔ567) is “inhibits the reporter activity”. Further, in test [9] (read-out: IC50 for AR inhibition), the IC50 worked out at 0.11 µM.
